Data reported in patent publication US20210205638A1, “PARATHYROID HORMONE AND REGENERATION OF DEGENERATIVE DISCS DISEASE” (THE JOHNS HOPKINS UNIVERSITY, priority 2017, published 2021).

System: IFT88-/- mice
Experiment: iPTH in IFT88-/- and wild-type mice: PPCT IVD volume and IVD histological score
Type: in vivo, mouse
Text: Mice carrying the PTH1R gene flanked by loxP sites (PTH1R^flox/flox) were mated with Noto^Cre mice to generate mice bearing Noto^Cre and a floxed PTH1R allele in their germline. These mice were backcrossed to homozygous floxed mice (Noto^Cre/+/PTH1R^flox/+::PTH1R^flox/flox) to generate mice with inactivation of both alleles in notochord derived cells (genotype […]). Homozygous disruption of the Noto locus is perinatally lethal; viable offspring have genotypes of either Noto^Cre/+:: PTH1R^flox/flox (mice with PTH1R conditional deletion in Noto lineage cells are referred to as “[…]” in the text) or Noto^+/+:: PTH1R^flox/flox (wild-type littermates hereinafter referred to as “PTH1R^+/+” in the text). The genotype of transgenic mice was determined by PCR analyses of genomic DNA isolated from mouse tails. The floxed PTH1R allele was identified with primers lox1F (5-[…] ID NO: 1) and lox1R (5-[…] ID NO: 2). The genotyping for the Cre transgene was performed by PCR with the primers […] ID NO: 3) […] ID NO: 4). We generated Noto^Cre/+:: ROSA26-lacZ^flox/flox by crossing Noto mice with mice homozygous with a loxP-flanked DNA stop sequence, preventing expression of the downstream lacZ gene. IFT88^flox/flox mouse model has been generated as descripted. A NP tissue-specific primary cilia knock-out (KO) mouse line was generated by crossing NotoCre mice with IFT88^flox/flox mice, in which the primary cilia were deleted from the NP tissue. The loxP IFT88 allele was identified with the primers lox2F ([NT] ID NO: 5) and lox2R ([NT] ID NO: 6). The 11 month-old PTH1R^+/+ and PTH1R^-/- male mice were randomized into four groups: PTH1R^+/++PTH (1-34), PTH1R^+/++Vehicle, PTH1R^-/-+PTH (1-34) and PTH1R^-/-+Vehicle groups (n=8 per group). […] Quantitative histomorphometric analysis was conducted in a blinded fashion with Image-Pro Plus Software version 6.0 (Media Cybernetics Inc). […] Five randomly selected sections per mice in each group at L3-L4 level were chosen for quantitative histomorphometric analysis. […] The percentage area of CCN2 and ACAN positive staining was calculated by measuring the positive area to the whole area of the L3-L4 in each group. […] The images were reconstructed and analyzed using the GPU-CT-Reconstruction software (applied by the BL13W1 experimental station) and the VG Studio Max 3D software (version 2.1, Volume Graphics GmbH, Germany) respectively. […] The 3D quantitative analysis of IVDs was performed with the commercially available Image Pro Analyzer 3D software (Version 7.0, Media Cybernetics, Inc., USA). The 3D structural parameters analyzed for the mean height and volume and thickness distribution of IVDs. […]

## CC[C@H](C)[C@H](NC(=O)[C@H](CCC(=O)O)NC(=O)[C@H](CO)NC(=O)[C@@H](NC(=O)[C@@H](N)CO)C(C)C)C(=O)N[C@@H](CCC(N)=O)C(=O)N[C@@H](CC(C)C)C(=O)N[C@@H](CCSC)C(=O)N[C@@H](Cc1cnc[nH]1)C(=O)N[C@@H](CC(N)=O)C(=O)N[C@@H](CC(C)C)C(=O)NCC(=O)N[C@@H](CCCCN)C(=O)N[C@@H](Cc1cnc[nH]1)C(=O)N[C@@H](CC(C)C)C(=O)N[C@@H](CC(N)=O)C(=O)N[C@@H](CO)C(=O)N[C@@H](CCSC)C(=O)N[C@@H](CCC(=O)O)C(=O)N[C@@H](CCCN=C(N)N)C(=O)N[C@H](C(=O)N[C@@H](CCC(=O)O)C(=O)N[C@@H](Cc1c[nH]c2ccccc12)C(=O)N[C@@H](CC(C)C)C(=O)N[C@@H](CCCN=C(N)N)C(=O)N[C@@H](CCCCN)C(=O)N[C@@H](CCCCN)C(=O)N[C@@H](CC(C)C)C(=O)N[C@@H](CCC(N)=O)C(=O)N[C@@H](CC(=O)O)C(=O)N[C@H](C(=O)N[C@@H](Cc1cnc[nH]1)C(=O)N[C@@H](CC(N)=O)C(=O)N[C@@H](Cc1ccccc1)C(=O)O)C(C)C)C(C)C [PTH (1-34), teriparatide]
IFT88-/- mice
  improvement of IVD scores by iPTH: impaired
IFT88-/- mice relative to wild-type mice
  iPTH-increased IVD volume: blunted
wild-type mice
  IVD scores: improvement
  IVD volume: increased
